This is an account of results in patent publication EP2348131A1, “Low levels of cytidine deaminase as a marker for genetic predisposition to develop cancer” (Institut Curie, priority 2010, dated 2011).

The test system of assay [1] is BLM-complemented BS cells. Kind of assay: Sister chromatid exchange assay in BLM-complemented BS cells. To be noted: BLM-complemented BS cells (BS-GFP-BLM), 25 mM dU or T in culture medium, 2 x 48 h. Format: cell-based, human. As to the method:
HeLa cells were used, as previously described (Dutertre S et al., Oncogene 19, 2731-8, 2000). HEK293 cells were cultured as HeLa cells. HeLaV cells and HeLashBLM cells, HEK293V and HEK293shBLM were obtained by transfecting HeLa and HEK cells with an empty pSM2 vector or a pSM2 vector encoding a short hairpin RNA sequence directed against BLM (Open Biosystems, clone V2HS-89234), respectively, using JetPEI reagent (Ozyme) according to the manufacturer's instructions. After 48 hours, selection with 1 to 5 µg/ ml puromycin (Invivogen) was applied for HeLa cells and with 7 to12 µg/ml puromycin for HEK cells. Individual colonies were isolated and maintained in growth medium containing 0.5 µg/ ml puromycin for Hela cells or 10µg/ml puromycin for HEK cells. For siRNAs transient transfection assays, 3-4 x 10^5 cells were seeded in 3 ml of medium in each well of a six-well plate. […]
After treatment, cells were transferred to slides and cultured in the presence of 10 µM 5-bromodeoxyuridine (Sigma) at 37°C, under an atmosphere containing 5% CO2. […] Metaphases were captured with a SONY DXC 930 P camera and SCEs or chromosomal aberrations were analyzed.

A further assay has as its system BS cells. The assay can be described thus: Sister chromatid exchange assay in BS cells cultured with deoxynucleosides. To be noted: BS cells (BS-GFP), 25 µM dU or T in culture medium, 2 x 48 h. Format: cell-based, human. As to the method:
The BS SV40-transformed fibroblast cell line GM08505B was cultured as previously described (Dutertre S et al., Oncogene 19, 2731-8, 2000). BS-GFP-BLM cells were obtained by transfecting BS GM08505B cells with an empty EGFP-C1 vector (Clontech, Mountain View, CA), or a EGFP-C1 vector containing the full length BLM cDNA (Eladad et al., Hum Mol Genet 14, 1351-65, 2005), respectively, using JetPEI reagent (Ozyme). After 48 hr, selection with 800 to 1600 µg/ml of G418 (Invitrogen) was applied. Individual colonies were isolated and maintained in DMEM supplemented with 800 µg/ml G418.
All cell lines were cultured in DMEM with 10% fetal calf serum (PAN laboratories) either not dialyzed (Lot P282710) or dialyzed (Lot P5940309) for nucleoside complementation experiments and dNTP assays. […]
After treatment, cells were transferred to slides and cultured in the presence of 10 µM 5-bromodeoxyuridine (Sigma) at 37°C, under an atmosphere containing 5% CO2. After 40 hours, Colchicine (Sigma) was added to a final concentration of 0.1 µg/ ml for 1 hour. Cells were incubated in hypotonic solution (1:6 (vol/vol) FCS-distilled water) and fixed with 3:1 (vol/vol) methanol-acetic acid. […] Metaphases were captured with a SONY DXC 930 P camera and SCEs or chromosomal aberrations were analyzed.

For `O=c1ccn([C@H]2C[C@H](O)[C@@H](CO)O2)c(=O)[nH]1` [dU, deoxyuridine], the SCEs frequency result is “did not affect” in assay [1] and “significant decrease” in the assay with BS cells.
With `Cc1cn([C@H]2C[C@H](O)[C@@H](CO)O2)c(=O)[nH]c1=O` [T, thymidine], the SCEs frequency entry in assay [1] was “did not affect”; in the assay on BS cells it was “significant decrease”.
